Source: patent publication US20100081690A1, “OXAZOLE DERIVATIVES AS POSITIVE ALLOSTERIC MODULATORS OF METABOTROPIC GLUTAMATE RECEPTORS” (ADDEX PHARMA SA, priority 2006, published 2010)

Legend:
[1] = target: T1, mGluR5 (Rattus norvegicus, UniProt P31424); test: mGluR5 assay on rat cultured cortical astrocytes (Ca2+ mobilization, FLIPR); type: cell-based; settings: in the presence of 300 nM glutamate
T1 construct: positive allosteric modulators of mGluR5 receptors in native preparations; endogenous in cells; host or cells: primary cortical astrocytes from Sprague-Dawley rat embryos (E16-19)
T1 sequence (P31424 21-1203): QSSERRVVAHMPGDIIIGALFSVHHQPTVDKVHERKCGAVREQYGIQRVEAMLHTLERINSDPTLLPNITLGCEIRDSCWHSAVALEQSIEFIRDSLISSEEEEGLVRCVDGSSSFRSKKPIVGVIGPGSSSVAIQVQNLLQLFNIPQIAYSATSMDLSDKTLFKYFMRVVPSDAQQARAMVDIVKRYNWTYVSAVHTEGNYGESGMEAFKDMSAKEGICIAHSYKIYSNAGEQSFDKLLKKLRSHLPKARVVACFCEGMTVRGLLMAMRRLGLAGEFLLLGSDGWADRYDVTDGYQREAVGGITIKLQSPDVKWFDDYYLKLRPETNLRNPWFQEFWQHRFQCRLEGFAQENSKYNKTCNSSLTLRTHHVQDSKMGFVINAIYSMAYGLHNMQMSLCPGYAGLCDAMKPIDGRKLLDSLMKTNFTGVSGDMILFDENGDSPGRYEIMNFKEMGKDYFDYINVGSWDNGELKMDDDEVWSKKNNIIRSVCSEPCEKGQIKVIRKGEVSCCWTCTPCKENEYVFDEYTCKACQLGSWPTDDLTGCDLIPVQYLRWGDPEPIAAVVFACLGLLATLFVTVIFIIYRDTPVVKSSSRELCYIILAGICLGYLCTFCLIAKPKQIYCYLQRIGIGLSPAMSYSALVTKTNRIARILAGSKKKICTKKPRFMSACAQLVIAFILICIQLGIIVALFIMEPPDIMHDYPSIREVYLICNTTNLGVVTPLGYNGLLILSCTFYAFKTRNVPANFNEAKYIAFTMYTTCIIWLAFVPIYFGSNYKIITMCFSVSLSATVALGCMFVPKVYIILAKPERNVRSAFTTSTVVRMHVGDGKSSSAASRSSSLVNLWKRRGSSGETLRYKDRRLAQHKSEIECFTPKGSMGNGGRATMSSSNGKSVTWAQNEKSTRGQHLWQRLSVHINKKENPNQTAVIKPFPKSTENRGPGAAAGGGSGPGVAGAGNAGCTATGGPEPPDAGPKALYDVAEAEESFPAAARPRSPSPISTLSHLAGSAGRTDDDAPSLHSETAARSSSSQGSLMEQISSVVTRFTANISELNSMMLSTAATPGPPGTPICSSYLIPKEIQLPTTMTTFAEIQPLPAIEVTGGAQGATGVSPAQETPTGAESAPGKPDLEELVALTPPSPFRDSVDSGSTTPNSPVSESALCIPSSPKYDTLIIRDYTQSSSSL
Description: Under exposure to growth factors (basic fibroblast growth factor, epidermal growth factor), rat cultured astrocytes express group I-Gq coupled mGluR transcripts, namely mGluR5, but none of the splice variants of mGluR1, and as a consequence, a functional expression of mGluR5 receptors (Miller et al. (1995) J. Neurosci. 15:6103-9): The stimulation of mGluR5 receptors with selective agonist CHPG and the full blockade of the glutamate-induced phosphoinositide (PI) hydrolysis and subsequent intracellular calcium mobilization with specific antagonist as MPEP confirm the unique expression of mGluR5 receptors in this preparation. […]
After one day of incubation, cells were washed with assay buffer containing: 142 mM NaCl, 6 mM KCl, 1 mM Mg2SO4, 1 mM CaCl2, 20 mM HEPES, 1 g/L glucose, 0.125 mM sulfinpyrazone, pH 7.4. […] The plates were then transferred to a Fluorometric Imaging Plate Reader (FLIPR, Molecular Devices, Sunnyvale, Calif.) for the assessment of intracellular calcium flux. After monitoring the baseline fluorescence for 10 s, a solution containing […] of representative compound of the present invention diluted in Assay Buffer (15 μl of 4× dilutions) was added to the cell plate in the absence or in the presence of 300 nM of glutamate. […] In each experiment, fluorescence was then monitored as a function of time for 3 minutes and the data analyzed using Microsoft Excel and GraphPad Prism. […]

[2] = target: T2, rat mGluR5 (Rattus norvegicus, UniProt P31424); test: mGluR5 assay on HEK-expressing rat mGluR5 (fluorescent cell based Ca2+ mobilization); settings: HEK-293 cells stably expressing rat mGluR5, no co-addition of glutamate; mean of at least three independent experiments in duplicate; read-out: Ca2+ Flux (mean EC50)
T2 construct: expressed in transfected cells
T2 sequence (P31424 21-1171 isoform P31424-2 limits assumed): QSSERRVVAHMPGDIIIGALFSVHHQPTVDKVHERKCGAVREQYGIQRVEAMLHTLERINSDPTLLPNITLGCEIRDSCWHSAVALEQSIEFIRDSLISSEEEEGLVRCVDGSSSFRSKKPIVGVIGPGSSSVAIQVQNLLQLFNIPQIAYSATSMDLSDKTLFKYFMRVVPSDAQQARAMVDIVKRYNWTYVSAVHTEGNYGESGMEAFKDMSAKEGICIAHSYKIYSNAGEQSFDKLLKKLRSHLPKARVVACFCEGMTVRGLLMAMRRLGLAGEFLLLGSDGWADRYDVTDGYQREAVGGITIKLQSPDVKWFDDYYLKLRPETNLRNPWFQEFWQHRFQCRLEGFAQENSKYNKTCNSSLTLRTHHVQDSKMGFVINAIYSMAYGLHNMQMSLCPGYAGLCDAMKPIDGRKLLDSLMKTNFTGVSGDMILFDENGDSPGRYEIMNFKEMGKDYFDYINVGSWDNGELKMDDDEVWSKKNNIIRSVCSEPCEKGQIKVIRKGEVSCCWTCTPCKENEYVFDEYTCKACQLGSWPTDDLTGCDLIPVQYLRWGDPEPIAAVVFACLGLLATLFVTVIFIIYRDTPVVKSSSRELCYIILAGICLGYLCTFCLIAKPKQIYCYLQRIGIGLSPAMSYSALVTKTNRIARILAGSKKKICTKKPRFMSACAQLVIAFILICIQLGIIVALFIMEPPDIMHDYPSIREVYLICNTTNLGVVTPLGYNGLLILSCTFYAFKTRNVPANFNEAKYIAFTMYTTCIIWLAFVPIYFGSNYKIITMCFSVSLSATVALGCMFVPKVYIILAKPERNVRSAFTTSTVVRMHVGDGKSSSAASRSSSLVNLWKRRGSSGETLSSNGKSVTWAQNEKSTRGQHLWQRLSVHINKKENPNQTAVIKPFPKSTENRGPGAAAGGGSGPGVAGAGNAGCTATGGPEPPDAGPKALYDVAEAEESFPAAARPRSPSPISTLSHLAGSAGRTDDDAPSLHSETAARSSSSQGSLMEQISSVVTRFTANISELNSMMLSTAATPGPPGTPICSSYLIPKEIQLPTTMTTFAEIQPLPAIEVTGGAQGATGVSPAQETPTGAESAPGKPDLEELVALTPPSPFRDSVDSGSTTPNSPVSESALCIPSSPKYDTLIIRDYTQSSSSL
Procedure: Positive functional expression of HEK-293 cells stably expressing rat mGluR5 receptor was determined by measuring intracellular Ca^2+ changes using a Fluorometric Imaging Plate Reader (FLIPR, Molecular Devices, Sunnyvale, Calif.) in response to glutamate or selective known mGluR5 agonists and antagonists. Rat mGluR5RT-PCR products in HEK-293 cells were sequenced and found 100% identical to rat mGluR5Genbank reference sequence (NM_017012). HEK-293 cells expressing rmGluR5 were maintained in media containing DMEM, dialyzed Fetal Bovine Serum (10%), Glutamax™ (2 mM), Penicillin (100 units/ml), Streptomycin (100 μg/ml), Geneticin (100 μg/ml) and Hygromycin-B (40 μg/ml) at 37° C./5% CO2.
After one day of incubation, cells were washed with assay buffer containing: 142 mM NaCl, 6 mM KCl, 1 mM […], 1 mM CaCl2, 20 mM HEPES, 1 g/L glucose, 0.125 mM sulfinpyrazone, pH 7.4. After 60 min of loading with 4 uM Fluo-4 (TefLabs, Austin, Tex.), the cells were washed three times with 50 μl of PBS Buffer and resuspended in 45 μl of assay Buffer. The plates were then transferred to a Fluorometric Imaging Plate Reader (FLIPR, Molecular Devices, Sunnyvale, Calif.) for the assessment of intracellular calcium flux. After monitoring the baseline fluorescence for 10 seconds, increasing concentrations of representative compound (from 0.01 to 60 μM) of the present invention diluted in Assay Buffer (15 μl of 4× dilutions) was added to the cell. The final DMSO concentration in the assay was 0.3%. In each experiment, fluorescence was then monitored as a function of time for 3 minutes and the data analyzed using Microsoft Excel and GraphPad Prism. Each data point was also measured two times.
Under these experimental conditions, this HEK-rat mGluR5 cell line is able to directly detect positive allosteric modulators without the need of co-addition of glutamate or mGluR5 agonist.
The concentration-response curves of representative compounds of the present invention were generated using the Prism GraphPad software (Graph Pad Inc, San Diego, USA). The curves were fitted to a four-parameter logistic equation:
(Y=Bottom+(Top-Bottom)/(1+10̂((Log EC50−X)*Hill Slope)
allowing determination of EC50 values.
The Table 1 below represents the mean EC50 obtained from at least three independent experiments of selected molecules performed in duplicate.

Compound `O=C(c1ccc(F)cc1)N1CCC[C@H](c2nc(-c3cc(F)c[nH]3)co2)C1` [Example 1, (4-Fluoro-phenyl)-{(S)-3-[4-(4-fluoro-1H-pyrrol-2-yl)-oxazol-2-yl]-piperidin-1-yl}-methanone] has an EC50 [1] of under 1000 nM, an EC50 [2] of under 1000 nM and a melting point of 136 °C.
